Measured values taken from ChEMBL document CHEMBL1149573, “Synthesis and reactivity of azobenzene-based bispropargyl sulfones: interesting comparison between cyclic and acyclic systems” (Bioorg Med Chem Lett, 2007).

Tested on: Escherichia coli
Assay: Induction of pBR322 DNA cleavage after 2.5 hrs relative to (E)-1,2-bis(2-(4-(phenylsulfonyl)but-2-ynyloxy)phenyl)diazene

Activity: 15%
Compound: O=S(=O)(CC#CCOc1ccc2ccccc2c1)c1ccccc1
